System: α7 integrin promoter
Experiment: muscle cell-based assay: α7βgal+/− myoblasts/myotubes, LacZ reporter, β-galactosidase cleavage of FDG
Parameters: species or system mouse
Conditions: Myotubes; for Results in a α7+/− β-galactosidase assay, Myotubes, 0.5 uM: compound at 0.5 uM; for Results in a α7+/− β-galactosidase assay, Myotubes, 1 uM: compound at 1 uM; for Results in a α7+/− β-galactosidase assay, Myotubes, 5 uM: compound at 5 uM; for Results in a α7+/− β-galactosidase assay, Myotubes, 10 uM: compound at 10 uM; for Results in a α7+/− β-galactosidase assay, Myotubes, 20 uM: compound at 20 uM; for Results in a α7+/− β-galactosidase assay, Myotubes, 40 uM: compound at 40 uM
How it was run: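 Fluorescein generated from FDG by β-galactosidase reports α7 integrin promoter activity in differentiated myoblasts from α7+/− LacZ knock-in pups. Screening hits then went to dose-response, western blotting and a myostatin counterscreen.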

Row | Structure (SMILES) | Results in a α7+/− β-galactosidase assay, Myotubes, 0.5 uM | Results in a α7+/− β-galactosidase assay, Myotubes, 1 uM | Results in a α7+/− β-galactosidase assay, Myotubes, 5 uM | Results in a α7+/− β-galactosidase assay, Myotubes, 10 uM | Results in a α7+/− β-galactosidase assay, Myotubes, 20 uM | Results in a α7+/− β-galactosidase assay, Myotubes, 40 uM
1 | O=C(O)c1csc(-c2cccs2)n1 [drawing 362] | 0.2703 | 0.2837 | 0.2451 | −0.02819 | −0.1366 | −0.1007
2 | COc1cccc(C(=O)COc2ccc3ccc(=O)oc3c2)c1 [drawing 363] | 0.3069 | 0.2317 | 0.07669 | 0.03997 | −0.3325 | −0.3127
3 | CCCS(=O)(=O)c1nc(S(=O)(=O)c2ccc(C)cc2)c(N2CCCC2)s1 [drawing 364] | 0.01021 | 0.05992 | −0.01197 | −0.0108 | −0.2345 | −0.3321
4 | OC(c1nc2cc(F)ccc2[nH]1)C(O)c1nc2cc(F)ccc2[nH]1 (stereo not drawn) [drawing 365] | 0.0667 | 0.1032 | 0.2081 | 0.01319 | −0.09026 | −0.08066
5 | COc1ccc(OC)c(NC(=O)CN2CCC(NC(=O)c3ccccc3C)CC2)c1 [drawing 366] | 0.003237 | 0.04584 | −0.09583 | −0.1153 | −0.1579 | −0.08927
6 | O=C(CCc1ccccc1)c1nnc(-c2ccccc2)o1 [drawing 367] | 0.117 | 0.1296 | −0.09921 | −0.1418 | −0.1125 | 0.05525
7 | COc1ccc(/N=N/c2ccc(N)nc2N)cc1 [drawing 368] | 0.1561 | 0.1699 | −0.00041 | −0.06379 | −0.1224 | −0.03271
8 | N=C(NOC(=O)c1cccc(C(F)(F)F)c1)c1cnccn1 [drawing 369] | 0.07542 | 0.07664 | −0.08801 | −0.1676 | −0.1858 | −0.1541
9 | CCOc1ccc2nc(Cl)sc2c1 [drawing 370] | −0.00103 | 0.001963 | −0.02718 | −0.04332 | −0.1345 | −0.219
10 | COc1ccc(CNC(=O)C2CCCN(S(=O)(=O)c3c(C)noc3/C=C/N(C)C)C2)cc1 (stereo not drawn) [drawing 371] | 0.1862 | 0.2675 | −0.1068 | −0.1252 | −0.1996 | −0.2682
11 | CC(O)CNc1nc2c(c(=O)n(Cc3ccc(Br)cc3)c(=O)n2C)n1C (stereo not drawn) [drawing 372] | 0.1594 | 0.164 | −0.05597 | −0.08357 | −0.2604 | −0.369
12 | COc1ccc(Cl)cc1NC(=O)c1cc(-c2cc(C)ccc2O)[nH]n1 [drawing 373] | 0.00543 | 0.04041 | −0.08884 | −0.1274 | −0.1168 | −0.2232
13 | CCC(C)C(CC)NC(=O)CSc1nnc(COc2ccc(Cl)cc2)o1 (stereo not drawn) [drawing 374] | 0.09087 | 0.07758 | −0.09861 | −0.1776 | −0.01998 | −0.2485

From patent US10028992B2, “Methods of treating muscular dystrophy” (BOARD OF REGENTS OF THE NEVADA SYSTEM OF HIGHER EDUCATION …, priority 2012, dated 2018)
